Source: patent publication US9102688B2, “Sulfonaminoquinoline hepcidin antagonists” (Vifor (International) AG, priority 2011, dated 2015)

What follows are compounds tested against T1, human ferroportin (Homo sapiens, UniProt Q9NP59) (assay: ferroportin internalization assay (inhibition of hepcidin-induced internalization of Fpn)). Details: MDCK-FPN-HaloTag cells, 100 nM hepcidin, overnight incubation; concentration range from 0.04 to 40 μM.
T1 construct: expressed in transfected cells
T1 sequence (Q9NP59 1-571): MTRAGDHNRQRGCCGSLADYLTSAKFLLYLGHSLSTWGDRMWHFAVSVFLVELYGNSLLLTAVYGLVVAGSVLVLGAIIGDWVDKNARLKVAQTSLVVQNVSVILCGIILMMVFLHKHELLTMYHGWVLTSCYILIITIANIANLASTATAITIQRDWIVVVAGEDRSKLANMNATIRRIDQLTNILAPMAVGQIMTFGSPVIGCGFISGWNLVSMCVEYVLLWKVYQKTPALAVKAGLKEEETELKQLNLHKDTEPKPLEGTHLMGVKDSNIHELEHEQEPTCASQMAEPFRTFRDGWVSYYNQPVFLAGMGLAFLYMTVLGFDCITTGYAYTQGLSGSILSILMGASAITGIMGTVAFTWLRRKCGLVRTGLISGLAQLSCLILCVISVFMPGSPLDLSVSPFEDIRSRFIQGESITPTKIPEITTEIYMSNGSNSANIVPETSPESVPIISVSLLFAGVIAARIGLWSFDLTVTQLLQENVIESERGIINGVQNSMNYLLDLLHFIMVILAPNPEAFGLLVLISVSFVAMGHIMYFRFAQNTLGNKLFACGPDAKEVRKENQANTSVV
Format: cell-based
Protocol: The hepcidin-antagonistic action of the sulfonaminoquinoline compounds of the present invention was determined by means of the “ferroportin internalization assay” described in the following.
Organic compounds of low molecular weight which counteract the biological actions of hepcidin on its receptor, the iron exporter ferroportin (Fpn), were identified on the basis of their ability to inhibit hepcidin-induced internalization of Fpn in living cells. For this purpose, a stable cell line (Madin-Darby canine kidney, MDCK) was produced which constitutively expresses human ferroportin fused recombinantly at its C terminus with a fluorescent reporter protein (HaloTag®, Promega Corp.). The internalization of Fpn was monitored by labelling these cells with fluorescent ligands (HaloTag®-TMR, tetramethylrhodamine) which join covalently on to the HaloTag reporter gene fused with the Fpn. […] Optimized image analysis algorithms were used to ascertain the cell surface and to quantify the corresponding membrane fluorescence associated with the Fpn-HaloTag fusion protein. This assay allows a quantitative image-based analysis in order to quickly evaluate compounds which can block hepcidin-induced internalization of Fpn. This assay is a direct in vitro pendant of the in vivo action mechanism proposed for medicament candidates and is therefore suitable as an initial assay with a high throughput for identifying compounds which counteract the action of hepcidin on its receptor ferroportin.
• 7,500 cells per well (MDCK-FPN-HaloTag) were transinoculated in 50 μl of DMEM medium (Dulbeccos Modified Eagle Medium with 10% foetal bovine serum (FBS), which contained 1% penicillin, 1% streptomycin and 450 μg/ml of G-418) in microtitre plates with 384 wells (384 Cell carrier plates, Perkin Elmer, cat. no. 6007430), followed by incubation overnight at 37° C./5% CO2. • The volume of the medium was reduced to 10 μl, and 10 μl of 5 μM HaloTag-TMR ligands (Promega, cat. no. G 8251) were added in DMEM medium in order to stain the Fpn-HaloTag fusion protein. • 15 min incubation at 37° C./5% CO2 • The HaloTag-TMR ligand was removed and the cells were washed with fresh DMEM medium and the volume was reduced to 20 μl of DMEM medium. • 3 μl per well of a solution of the test compound (dissolved DMSO) were added ([…]). • 7 μl of […] hepcidin (Peptides International, cat. no. PLP-4392-s, 100 μM stock solution diluted in water in DMEM medium) were added per well up to a final hepcidin concentration of 100 nM. • The cells were incubated overnight at 37° C./5% CO2. • The cells were fixed by adding paraformaldehyde (PFA, Electron Microscopy Sciences, cat. no. 15710-S) directly to the cells up to a final concentration of 4%, followed by incubation at room temperature for 15-20 minutes. • The PFA solution was removed and the cells were washed with PBS (phosphate-buffered saline solution), in each case 30 μl remaining in the plate. • 20 μl of Draq5 (Biostatus, cat. no. DR 51000) were added up to a final concentration of 2.5 μM in order to stain the cell nuclei, and the plates were sealed with a foil plate seal. • The plates were analysed with the Opera Plate Imager (Opera Confocal Plate Imager, Perkin Elmer) with 7 images per well; 440 ms exposure time per image, […] focal point height.

Structure (SMILES)	IC50
N#Cc1cccc(S(=O)(=O)Nc2cccc3cccnc23)c1 [Example 16, 3-Cyano-N-quinolin-8-yl-benzenesulfonamide]	413 nM
COc1ccc(C2c3ccc4cccnc4c3NS(=O)(=O)N2C)cc1F (centres unmarked) [Example 396, 1-(3-Fluoro-4-methoxy-phenyl)-2-methyl-1,4-dihydro-2H-3-thia-2,4,5-triaza-phenanthrene 3,3-dioxide]	1480 nM
O=S1(=O)Nc2c(ccc3cccnc23)CN1c1ccccc1 [Example 113, 2-Phenyl-1,4-dihydro-2H-3-thia-2,4,5-triaza-phenanthrene 3,3-dioxide]	460 nM
Cc1ccc(S(=O)(=O)Nc2cccc3cccnc23)nc1 [Example 227, 5-Methyl-pyridine-2-sulfonic acid quinolin-8-ylamide]	380 nM
CN(C)c1ccc2c(c1)-c1ccc3cccnc3c1NS2(=O)=O [Example 502, (6,6-Dioxo-5,6-dihydro-6λ*6*-thia-4,5-diaza-chrysen-9-yl)-dimethyl-amine]	910 nM
Cc1cc(NS(=O)(=O)c2ccccc2)c2ncccc2c1 [Example 77, N-(6-Methyl-quinolin-8-yl)-benzenesulfonamide]	2180 nM
O=S(=O)(Nc1cc(F)cc2cccnc12)c1ccccc1 [Example 75, N-(6-Fluoro-quinolin-8-yl)-benzenesulfonamide]	780 nM
O=S1(=O)Nc2c(ccc3cccnc23)-c2cc(F)ccc21 [Example 74, 9-Fluoro-5H-6-thia-4,5-diaza-chrysene 6,6-dioxide]	1560 nM
Nc1cc(C(F)(F)F)ccc1S(=O)(=O)Nc1cccc2cccnc12 [Example 35, 2-Amino-N-quinolin-8-yl-4-trifluoromethyl-benzenesulfonamide]	760 nM
Cc1cccc(S(=O)(=O)Nc2cccc3cccnc23)n1 [Example 228, 6-Methyl-pyridine-2-sulfonic acid quinolin-8-ylamide]	15400 nM
O=S(=O)(Nc1cccc2cccnc12)c1ccc(Cl)cc1 [Example 5, 4-Chloro-N-quinolin-8-yl-benzenesulfonamide]	3200 nM
O=S(=O)(Nc1ccccc1)Nc1cccc2cccnc12 [Example 46, N-phenyl(quinolin-8-ylamino)sulfonamide]	2300 nM
O=C(OC1CCCC1)c1ccc2c(c1)-c1cc(Cl)c3cccnc3c1NS2(=O)=O [Example 533, 12-Chloro-6,6-dioxo-5,6-dihydro-6λ*6*-thia-4,5-diaza-chrysene-9-carboxylic acid cyclopentyl ester]	990 nM
Cc1c(F)cccc1S(=O)(=O)Nc1cccc2cccnc12 [Example 83, 3-Fluoro-2-methyl-N-quinolin-8-yl-benzenesulfonamide]	1500 nM
Nc1cc(F)ccc1S(=O)(=O)Nc1cccc2cccnc12 [Example 31, 2-Amino-4-fluoro-N-quinolin-8-yl-benzenesulfonamide]	3940 nM
O=S1(=O)Nc2c(cc(Cl)c3cccnc23)-c2ccccc21 [Example 328, 12-Chloro-5H-6-thia-4,5-diaza-chrysene 6,6-dioxide]	320 nM
O=S(=O)(Nc1cc(OC(F)(F)F)cc2cccnc12)c1ccc(C(F)(F)F)nc1 [Example 232, 6-Trifluoromethyl-pyridine-3-sulfonic acid (6-trifluoromethoxy-quinolin-8-yl)-amide]	12500 nM
O=S1(=O)Nc2c(cc(F)c3cccnc23)-c2cc(C(F)(F)F)ccc21 [Example 306, 12-Fluoro-9-trifluoromethyl-5H-6-thia-4,5-diaza-chrysene 6,6-dioxide]	4190 nM

Structure (SMILES)	IC50
O=S(=O)(Nc1ccc(C(F)(F)F)c2cccnc12)c1ccccn1 [Example 234, Pyridine-2-sulfonic acid (5-trifluoromethyl-quinolin-8-yl)-amide]	460 nM
CN1C(c2ccc(F)c(F)c2)c2ccc3cccnc3c2NS1(=O)=O (centres unmarked) [Example 392, 1-(3,4-Difluoro-phenyl)-2-methyl-1,4-dihydro-2H-3-thia-2,4,5-triaza-phenanthrene 3,3-dioxide]	250 nM
COCCNc1cc2c(c3ncccc13)NS(=O)(=O)c1ccccc1-2 [Example 548, (6,6-Dioxo-5,6-dihydro-6λ*6*-thia-4,5-diaza-chrysen-12-yl)-(2-methoxy-ethyl)-amine]	2830 nM
O=S(=O)(Nc1cccc2cccnc12)c1ccc(C(F)(F)F)nc1 [Example 89, 6-Trifluoromethyl-pyridine-3-sulfonic acid quinolin-8-ylamide]	3690 nM
Cc1ccc(C2c3ccc4cccnc4c3NS(=O)(=O)N2C)cc1 (centres unmarked) [Example 383, 2-Methyl-1-p-tolyl-1,4-dihydro-2H-3-thia-2,4,5-triaza-phenanthrene 3,3-dioxide]	600 nM
COc1ccc2c(c1)-c1ccc3cccnc3c1NS2(=O)=O [Example 105, 9-Methoxy-5H-6-thia-4,5-diaza-chrysene 6,6-dioxide]	1580 nM
O=S1(=O)Nc2c(ccc3cccnc23)-c2ccccc21 [Example 2, 5H-6-Thia-4,5-diaza-chrysene 6,6-dioxide]	2900 nM
O=S(=O)(Nc1cccc2cccnc12)c1ccccc1 [Example 4, N-Quinolin-8-yl-benzenesulfonamide]	4590 nM
O=S(=O)(Nc1cccc2cccnc12)c1cccc(Cl)c1 [Example 20, 3-Chloro-N-quinolin-8-yl-benzenesulfonamide]	985 nM
COc1cc(NS(=O)(=O)c2ccccc2)c2ncccc2c1 [Example 23, N-(6-Methoxy-quinolin-8-yl)-benzenesulfonamide]	6400 nM
O=S1(=O)Nc2c(cc(N3CCCC3)c3cccnc23)-c2ccccc21 [Example 553, 12-Pyrrolidin-1-yl-5H-6-thia-4,5-diaza-chrysene 6,6-dioxide]	4360 nM
O=S(=O)(Nc1cccc2cccnc12)c1c(Cl)cc(Cl)cc1Cl [Example 47, 2,4,6-Trichloro-N-quinolin-8-yl-benzenesulfonamide]	857 nM
O=S1(=O)Nc2c(cc(Cl)c3cccnc23)-c2cc(N3CCOCC3)ccc21 [Example 509, 12-Chloro-9-morpholin-4-yl-5H-6-thia-4,5-diaza-chrysene 6,6-dioxide]	1620 nM
O=S1(=O)Nc2c(cc(Cl)c3cccnc23)-c2cc(NCCN3CCOCC3)ccc21 [Example 511, (12-Chloro-6,6-dioxo-5,6-dihydro-6λ*6*-thia-4,5-diaza-chrysen-9-yl)-(2-morpholin-4-yl-ethyl)-amine]	620 nM
COc1ccc2c(c1)S(=O)(=O)Nc1c-2ccc2cccnc12 [Example 326, 8-Methoxy-5H-6-thia-4,5-diaza-chrysene 6,6-dioxide]	2110 nM
N#Cc1ccccc1S(=O)(=O)Nc1cccc2cccnc12 [Example 37, 2-Cyano-N-quinolin-8-yl-benzenesulfonamide]	815 nM
CN1C(c2ccc(OC(F)(F)F)cc2)c2ccc3cccnc3c2NS1(=O)=O (centres unmarked) [Example 393, 2-Methyl-1-(4-trifluoromethoxy-phenyl)-1,4-dihydro-2H-3-thia-2,4,5-triaza-phenanthrene 3,3-dioxide]	1150 nM
